According to patent publication US20250186470A1, “Compositions and Methods Using Lactulose for Treating Disease” (THE UNIVERSITY OF CHICAGO, priority 2023, published 2025):

Key:
[1] = tested on: Proteobacteria (Enterobacteriaceae); assay: Fecal shotgun metagenomics of hospitalized liver disease patients stratified by lactulose exposure: Enterobacteriaceae/Proteobacteria abundance; type: in vivo, human; conditions: fecal samples from lactulose-treated patients
B. longum [2] = assay: Ex-germ-free mice colonized with 8-11 strain consortia containing B. longum +/- lactulose; type: in vivo, mouse
Source text: (A) Schematic indicating timing of consortia gavage, lactulose administration (20 g/L in drinking water), and stool collection in ex-germ-free mice. […] (B) 16S metagenomics from stool samples without (left facet within each consortia) and with (right facet within each consortia) lactulose exposure is shown as relative abundance. Concentrations of acetate and taurocholic acid are shown in units of mM below each paired sample. (C) Bifidobacteria relative abundance, acetate concentration (mM), and taurocholic acid concentrations (μg/ml) were measured and compared between mice that were and were not exposed to lactulose. […] DNA was extracted using the QIAamp PowerFecal Pro DNA kit (Qiagen). Prior to extraction, samples were subjected to mechanical disruption using a bead beating method. Briefly, samples were suspended in a bead tube (Qiagen) along with lysis buffer and loaded on a bead mill homogenizer (Fisherbrand). Samples were then centrifuged, and supernatant was resuspended in a reagent that effectively removed inhibitors. DNA was then purified routinely using a spin column filter membrane and quantified using Qubit. […] Short chain fatty acids (SCFA, i.e. butyrate, acetate, propionate, and succinate) were derivatized with pentafluorobenzyl bromide (PFBBr) and analyzed via negative ion collision induced-gas chromatography-mass spectrometry ([-]CI-GC-MS, Agilent 8890) 92. Eight bile acids (BA, i.e. primary: cholic acid; conjugated primary: glycocholic acid, taurocholic acid; secondary: deoxycholic acid, lithocholic acid [LCA], isodeoxycholic acid; modified secondary: alloisolithocholic acid [alloisoLCA] and 3-oxolithocholic acid [3-oxoLCA]) were quantified (μg/mL) by negative mode liquid chromatography-electrospray ionization-quadrupole time-of-flight-MS ([-]LC-ESI-QTOF-MS, Agilent 6546). […] For germ-free studies, 6-18 week-old male and female C57BL/6 mice were used. Mice were initially obtained from The Jackson Laboratory and subsequently bred and raised in a germ-free isolator. […]

B. longum [3] = tested on: B. longum
Protocol: B. longum was grown in regular media (blue) or media supplemented with 50 mM lactulose (red) or sucrose (green). (A) pH before and after 24 h of growth (n=3 for 0 h; n=6 for 24 h). (B) SCFA concentrations after 24 h of growth. n=6 all conditions. […] Plots are representative of three independent experiments with ≥3 technical replicates all with consistent results. TCA: taurocholic acid, GCA: glycocholic acid, CA: cholic acid, CDCA: chenodeoxycholic acid, DCA: deoxycholic acid, and LCA: lithocholic acid. (E) Schematic of B. longum gavage, lactulose administration, and stool collection in ex-GF mice. […] (I-K) SCFA concentrations before and 10-days after Bifidobacteria inoculation. Each dot represents one sample from each mouse. […] (L) Primary, (M) conjugated primary, and (N) secondary BA were measured at indicated timepoints. Each dot represents one sample from each mouse. […] Short chain fatty acids (SCFA, i.e. butyrate, acetate, propionate, and succinate) were derivatized with pentafluorobenzyl bromide (PFBBr) and analyzed via negative ion collision induced-gas chromatography-mass spectrometry ([-]CI-GC-MS, Agilent 8890) 92. Eight bile acids (BA, i.e. primary: cholic acid; conjugated primary: glycocholic acid, taurocholic acid; secondary: deoxycholic acid, lithocholic acid [LCA], isodeoxycholic acid; modified secondary: alloisolithocholic acid [alloisoLCA] and 3-oxolithocholic acid [3-oxoLCA]) were quantified (μg/mL) by negative mode liquid chromatography-electrospray ionization-quadrupole time-of-flight-MS ([-]LC-ESI-QTOF-MS, Agilent 6546). […] All mouse studies were approved by The University of Chicago Institutional Animal Care and Use Committee (IACUC, Protocol 72599). For germ-free studies, 6-18 week-old male and female C57BL/6 mice were used.

B. longum [4] = assay: B. longum growth, pH and SCFA in BHIS with 50 mM lactulose or sucrose; type: cell-based, Bifidobacterium longum
Source text: FIGS. 4A-4D: Lactulose-mediated Bifidobacteria expansion is associated with exclusion of antibiotic-resistant Enterococcus species. (A) Relative abundance of potentially pathogenic taxa Enterococcus and Proteobacteria were plotted based on lactulose exposure (no lactulose, left; lactulose, right) and relative abundance of Bifidobacteria (<10%, blue; ≥10%, red). Each point represents a single sample with the following sample sizes: total n=262; no lactulose, <10%, n=79; no lactulose, ≥10%, n=24; lactulose, <10%, n=87; lactulose, ≥10%, n=72. Median and interquartile range are indicated by the horizontal line and box, respectively. The lower vertical line depicts Q1-1.5*IQR and the upper vertical line depicts Q3+1.5*IQR. Statistical comparisons between individual groups were analyzed using a two-tailed Wilcoxon rank sum test. P-values are adjusted for multiple comparisons using the Benjamini-Hochberg procedure and represented as follows: *, p<0.05; **, p<0.01; ***, p<0.001; ****, p<0.0001. (B) A human-derived B. longum species was grown in BHIS media (blue) or BHIS supplemented with 50 mM lactulose (red) or 50 mM sucrose (green), and growth curves (OD600 over time) are shown. […] This graph is representative of three independent experiments, also done in triplicate, all with consistent results. (C) Schematic of experimental design for B. longum (purple bacilli) and VRE (green cocci) co-culture. B. longum and VRE were grown to steady state and diluted to low density (OD600=0.05) prior to inoculation in either BHIS or BHIS supplemented with 50 mM lactulose. Cultures were inoculated with both bacteria simultaneously (top) or B. longum was given either a 24-hour or 48-hour lead time prior to VRE inoculation (bottom). (D) After 24-hours of co-culture, serial dilutions of three replicates were plated for VRE c.f.u. counts. Each replicate is plotted as an individual point, and the median is represented by the horizontal line. […]
(C and D) Supernatant BA quantified after 24 h of B. longum growth in media containing 10 μg/ml conjugated primary BA ((C) TCA or (D) GCA). n=4 all conditions. […]

[5] = lactulose 10 days, B. longum colonized mice

Question: Which results are given for `OC[C@H]1O[C@@H](O[C@@H]2[C@@H](CO)OC(O)(CO)[C@H]2O)[C@H](O)[C@@H](O)[C@H]1O` (mixture of isomers) [Lactulose, lactulose]?
Answer: Enterobacteriaceae abundance, mean [1]: 7.9%; Enterobacteriaceae abundance, median [1]: 0.9%; Enterobacteriaceae abundance, range [1]: 0.0-98.8%; Relative abundance of B. longum (B. longum [2]; all consortia (CON.1-3), 20 g/L lactulose in drinking water): increased; Fecal taurocholic acid concentrations (B. longum [2]; all three consortia, 20 g/L lactulose): reduced; Fecal acetate concentrations (B. longum [2]; consortia, 20 g/L lactulose): only modestly increased; Stool water content (B. longum [3]; GF mice, 20 g/L lactulose in water): increased; Fecal acetate concentration (B. longum [3]; [5]): elevated; Fecal conjugated BA concentrations (B. longum [3]; [5]): reduced; Fecal unconjugated primary BA concentrations (B. longum [3]; [5]): elevated; Lactulose in stool (B. longum [3]; mouse, in vivo): detectable; Acetate in B. longum culture (B. longum [4]; 50 mM lactulose, 24 h): acetate production; Media pH after B. longum growth (B. longum [4]; 50 mM lactulose, 24 h): media acidification; B. longum culture growth (OD600) (B. longum [4]; BHIS supplemented with 50 mM sugar): augmented
